Patent US20230085307A1, “PYRIDAZINONE COMPOUND AND HERBICIDE” (NISSAN CHEMICAL CORPORATION, priority 2019, published 2023)

Experiments:
barnyard grass [1] = assay: Test Example 3: herbicidal effect by foliage application, Wagner pot (Table 18, symbol H); type: in vivo, barnyard grass (Echinochloa crus-galli); details: amount of applied herbicide 320 g/ha
Summary of the method: (§1)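 Plants were sown in alluvial soil held under 0.1–0.5 cm standing water and grown 14 days in a greenhouse at 25–30 °C. An emulsifiable formulation, water-diluted to the set dose, was then sprayed onto the foliage, and effects were scored three weeks later using previously defined criteria.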

Chinese sprangletop = assay: Test Example 3: herbicidal effect by foliage application, Wagner pot (Table 18, symbol D); type: in vivo, chinese sprangletop (Leptochloa chinensis); details: amount of applied herbicide 320 g/ha
Summary of the method: as §1

rice flat sedge = assay: Test Example 3: herbicidal effect by foliage application, Wagner pot (Table 18, symbol E); type: in vivo, rice flat sedge (Cyperus iria); details: amount of applied herbicide 320 g/ha
Summary of the method: as §1

southern crabgrass [2] = assay: Test Example 4: herbicidal effect by soil treatment (Table 19, symbol F); type: in vivo, southern crabgrass (Digitaria ciliaris); details: amount of applied herbicide 320 g/ha
Summary of the method: (§2)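 Emulsion of test compound, water-diluted to predetermined amount, sprayed on soil after sowing (seed depth ~1.5 cm, sterilized diluvial soil). Greenhouse, 25–30° C. Effect graded at three weeks post-spray.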

green foxtail [3] = assay: Test Example 4: herbicidal effect by soil treatment (Table 19, symbol G); type: in vivo, green foxtail (Setaria viridis); details: amount of applied herbicide 320 g/ha
Summary of the method: as §2

barnyard grass [4] = assay: Test Example 4: herbicidal effect by soil treatment (Table 19, symbol H); type: in vivo, barnyard grass (Echinochloa crus-galli); details: amount of applied herbicide 320 g/ha
Summary of the method: as §2

wild oat [5] = assay: Test Example 4: herbicidal effect by soil treatment (Table 19, symbol I); type: in vivo, wild oat (Avena fatua); details: amount of applied herbicide 320 g/ha
Summary of the method: as §2

blackgrass [6] = assay: Test Example 4: herbicidal effect by soil treatment (Table 19, symbol J); type: in vivo, blackgrass (Alopecurus myosuroides); details: amount of applied herbicide 320 g/ha
Summary of the method: as §2

Italian ryegrass [7] = assay: Test Example 4: herbicidal effect by soil treatment (Table 19, symbol K); type: in vivo, Italian ryegrass (Lolium multiflorum); details: amount of applied herbicide 320 g/ha
Summary of the method: as §2

windgrass [8] = assay: Test Example 4: herbicidal effect by soil treatment (Table 19, symbol L); type: in vivo, windgrass (Apera spica-venti); details: amount of applied herbicide 320 g/ha
Summary of the method: as §2

velvetleaf [9] = assay: Test Example 4: herbicidal effect by soil treatment (Table 19, symbol M); type: in vivo, velvetleaf (Abutilon theophrasti); details: amount of applied herbicide 320 g/ha
Summary of the method: as §2

redroot pigweed = assay: Test Example 4: herbicidal effect by soil treatment (Table 19, symbol N); type: in vivo, redroot pigweed (Amaranthus retroflexus); details: amount of applied herbicide 320 g/ha
Summary of the method: as §2

lambsquarters [10] = assay: Test Example 4: herbicidal effect by soil treatment (Table 19, symbol O); type: in vivo, lambsquarters (Chenopodium album); details: amount of applied herbicide 320 g/ha
Summary of the method: as §2

chickweed = assay: Test Example 4: herbicidal effect by soil treatment (Table 19, symbol P); type: in vivo, common chickweed (Stellaria media); details: amount of applied herbicide 320 g/ha
Summary of the method: as §2

false cleavers = assay: Test Example 4: herbicidal effect by soil treatment (Table 19, symbol Q); type: in vivo, false cleavers (Galium spurium); details: amount of applied herbicide 320 g/ha
Summary of the method: as §2

persian speedwell [11] = assay: Test Example 4: herbicidal effect by soil treatment (Table 19, symbol R); type: in vivo, Persian speedwell (Veronica persica); details: amount of applied herbicide 320 g/ha
Summary of the method: as §2

southern crabgrass [12] = assay: Test Example 5: herbicidal effect by foliage application, plastic box (Table 20, symbol F); type: in vivo, southern crabgrass (Digitaria ciliaris); details: foliage application, 320 g/ha, three weeks after application
Summary of the method: (§3)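 Post-emergence foliar test in sterilized diluvial soil. Compound applied as water-diluted emulsion at a predetermined rate to 14-day-old plants; evaluation at three weeks.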

green foxtail [13] = assay: Test Example 5: herbicidal effect by foliage application, plastic box (Table 20, symbol G); type: in vivo, green foxtail (Setaria viridis); details: foliage application, 320 g/ha, three weeks after application
Summary of the method: as §3

barnyard grass [14] = assay: Test Example 5: herbicidal effect by foliage application, plastic box (Table 20, symbol H); type: in vivo, barnyard grass (Echinochloa crus-galli); details: foliage application, 320 g/ha, three weeks after application
Summary of the method: as §3

wild oat [15] = assay: Test Example 5: herbicidal effect by foliage application, plastic box (Table 20, symbol I); type: in vivo, wild oat (Avena fatua); details: foliage application, 320 g/ha, three weeks after application
Summary of the method: as §3

blackgrass [16] = assay: Test Example 5: herbicidal effect by foliage application, plastic box (Table 20, symbol J); type: in vivo, blackgrass (Alopecurus myosuroides); details: foliage application, 320 g/ha, three weeks after application
Summary of the method: as §3

Italian ryegrass [17] = assay: Test Example 5: herbicidal effect by foliage application, plastic box (Table 20, symbol K); type: in vivo, Italian ryegrass (Lolium multiflorum); details: foliage application, 320 g/ha, three weeks after application
Summary of the method: as §3

windgrass [18] = assay: Test Example 5: herbicidal effect by foliage application, plastic box (Table 20, symbol L); type: in vivo, windgrass (Apera spica-venti); details: foliage application, 320 g/ha, three weeks after application
Summary of the method: as §3

velvetleaf [19] = assay: Test Example 5: herbicidal effect by foliage application, plastic box (Table 20, symbol M); type: in vivo, velvetleaf (Abutilon theophrasti); details: foliage application, 320 g/ha, three weeks after application
Summary of the method: as §3

lambsquarters [20] = assay: Test Example 5: herbicidal effect by foliage application, plastic box (Table 20, symbol O); type: in vivo, lambsquarters (Chenopodium album); details: foliage application, 320 g/ha, three weeks after application
Summary of the method: as §3

persian speedwell [21] = assay: Test Example 5: herbicidal effect by foliage application, plastic box (Table 20, symbol R); type: in vivo, Persian speedwell (Veronica persica); details: foliage application, 320 g/ha, three weeks after application
Summary of the method: as §3

| Compound | Herbicidal effect on H (barnyard grass), foliage application (barnyard grass [1]) | Herbicidal effect on D (Chinese sprangletop), foliage application (Chinese sprangletop) | Herbicidal effect on E (rice flat sedge), foliage application (rice flat sedge) | F: southern crabgrass, herbicidal effect grade (southern crabgrass [2]) | G: green foxtail, herbicidal effect grade (green foxtail [3]) | H: barnyard grass, herbicidal effect grade (barnyard grass [4]) | I: wild oat, herbicidal effect grade (wild oat [5]) | J: blackgrass, herbicidal effect grade (blackgrass [6]) | K: Italian ryegrass, herbicidal effect grade (Italian ryegrass [7]) | L: windgrass, herbicidal effect grade (windgrass [8]) | M: velvetleaf, herbicidal effect grade (velvetleaf [9]) | N: redroot pigweed, herbicidal effect grade (redroot pigweed) | O: lambsquarters, herbicidal effect grade (lambsquarters [10]) | P: chickweed, herbicidal effect grade (chickweed) | Q: false cleavers, herbicidal effect grade (false cleavers) | R: persian speedwell, herbicidal effect grade (persian speedwell [11]) | herbicidal effect on southern crabgrass (F) (southern crabgrass [12]) | herbicidal effect on green foxtail (G) (green foxtail [13]) | herbicidal effect on barnyard grass (H) (barnyard grass [14]) | herbicidal effect on wild oat (I) (wild oat [15]) | other results |
| --- | --- | --- | --- | --- | --- | --- | --- | --- | --- | --- | --- | --- | --- | --- | --- | --- | --- | --- | --- | --- | --- |
| Cc1nn(C)c(=O)c(-c2c(-c3ccc(F)cc3)oc3ccc(F)cc23)c1O [9-014] | 3 (Herbicidal rate of 40% or more and less than 70%) | 3 (Herbicidal rate of 40% or more and less than 70%) | 5 (Herbicidal rate of 90% or more (almost completely withered)) | 4 (Herbicidal rate of 70% or more and less than 90%) | 5 (Herbicidal rate of 90% or more (almost completely withered)) | 4 (Herbicidal rate of 70% or more and less than 90%) | 1 (Herbicidal rate of 5% or more and less than 20%) | 4 (Herbicidal rate of 70% or more and less than 90%) | 5 (Herbicidal rate of 90% or more (almost completely withered)) | 0 (Herbicidal rate of 5% or less (almost no effect)) | 4 (Herbicidal rate of 70% or more and less than 90%) | 5 (Herbicidal rate of 90% or more (almost completely withered)) | 3 (Herbicidal rate of 40% or more and less than 70%) | 5 (Herbicidal rate of 90% or more (almost completely withered)) | 0 (Herbicidal rate of 5% or less (almost no effect)) | 4 (Herbicidal rate of 70% or more and less than 90%) | 2 (Herbicidal rate of 20% or more and less than 40%) | 4 (Herbicidal rate of 70% or more and less than 90%) | 4 (Herbicidal rate of 70% or more and less than 90%) | 3 (Herbicidal rate of 40% or more and less than 70%) | herbicidal effect on blackgrass (J) (blackgrass [16]): 4 (Herbicidal rate of 70% or more and less than 90%); herbicidal effect on Italian ryegrass (K) (Italian ryegrass [17]): 5 (Herbicidal rate of 90% or more (almost completely withered)); herbicidal effect on windgrass (L) (windgrass [18]): 4 (Herbicidal rate of 70% or more and less than 90%); herbicidal effect on velvetleaf (M) (velvetleaf [19]): 3 (Herbicidal rate of 40% or more and less than 70%); herbicidal effect on lambsquarters (O) (lambsquarters [20]): 4 (Herbicidal rate of 70% or more and less than 90%); herbicidal effect on persian speedwell (R) (persian speedwell [21]): 5 (Herbicidal rate of 90% or more (almost completely withered)) |
| Cc1nn(C)c(=O)c(-c2c(-c3ccc(SC(C)C)cc3)oc3ccc(F)cc23)c1O [9-041] | 5 (Herbicidal rate of 90% or more (almost completely withered)) | 2 (Herbicidal rate of 20% or more and less than 40%) | 5 (Herbicidal rate of 90% or more (almost completely withered)) | 3 (Herbicidal rate of 40% or more and less than 70%) | 4 (Herbicidal rate of 70% or more and less than 90%) | 1 (Herbicidal rate of 5% or more and less than 20%) | 0 (Herbicidal rate of 5% or less (almost no effect)) | 0 (Herbicidal rate of 5% or less (almost no effect)) | 5 (Herbicidal rate of 90% or more (almost completely withered)) | 0 (Herbicidal rate of 5% or less (almost no effect)) | 1 (Herbicidal rate of 5% or more and less than 20%) | 5 (Herbicidal rate of 90% or more (almost completely withered)) | 4 (Herbicidal rate of 70% or more and less than 90%) | 1 (Herbicidal rate of 5% or more and less than 20%) | 0 (Herbicidal rate of 5% or less (almost no effect)) | 4 (Herbicidal rate of 70% or more and less than 90%) | 0 (Herbicidal rate of 5% or less (almost no effect)) | 4 (Herbicidal rate of 70% or more and less than 90%) | 3 (Herbicidal rate of 40% or more and less than 70%) | 3 (Herbicidal rate of 40% or more and less than 70%) | herbicidal effect on blackgrass (J) (blackgrass [16]): 3 (Herbicidal rate of 40% or more and less than 70%); herbicidal effect on Italian ryegrass (K) (Italian ryegrass [17]): 5 (Herbicidal rate of 90% or more (almost completely withered)); herbicidal effect on windgrass (L) (windgrass [18]): 4 (Herbicidal rate of 70% or more and less than 90%); herbicidal effect on velvetleaf (M) (velvetleaf [19]): 3 (Herbicidal rate of 40% or more and less than 70%); herbicidal effect on lambsquarters (O) (lambsquarters [20]): 4 (Herbicidal rate of 70% or more and less than 90%); herbicidal effect on persian speedwell (R) (persian speedwell [21]): 5 (Herbicidal rate of 90% or more (almost completely withered)) |
